For experiment [1], the target named is T1, Arabidopsis HPPD single point mutant SEQ ID No. 48 (Arabidopsis thaliana, UniProt P93836, K421Q).
T1 construct: made in house; host or cells: E. coli BL21 (DE3)
The experiment can be described thus: biochemical. As to conditions: K421Q mutant (SEQ ID No. 48); 2 mM HPP, 3 minutes incubation. The source says: (§1) In this content, pI50-value means the log value of the concentration of inhibitor necessary to inhibit 50% of the enzyme activity in molar concentration.

In experiment [2] the target is T2, Arabidopsis HPPD single point mutant SEQ ID No. 40 (Arabidopsis thaliana, UniProt P93836, V269A).
T2 construct: made in house; host or cells: E. coli BL21 (DE3)
T2 sequence (P93836 other isoform, or with tags, fused parts or gaps V269A): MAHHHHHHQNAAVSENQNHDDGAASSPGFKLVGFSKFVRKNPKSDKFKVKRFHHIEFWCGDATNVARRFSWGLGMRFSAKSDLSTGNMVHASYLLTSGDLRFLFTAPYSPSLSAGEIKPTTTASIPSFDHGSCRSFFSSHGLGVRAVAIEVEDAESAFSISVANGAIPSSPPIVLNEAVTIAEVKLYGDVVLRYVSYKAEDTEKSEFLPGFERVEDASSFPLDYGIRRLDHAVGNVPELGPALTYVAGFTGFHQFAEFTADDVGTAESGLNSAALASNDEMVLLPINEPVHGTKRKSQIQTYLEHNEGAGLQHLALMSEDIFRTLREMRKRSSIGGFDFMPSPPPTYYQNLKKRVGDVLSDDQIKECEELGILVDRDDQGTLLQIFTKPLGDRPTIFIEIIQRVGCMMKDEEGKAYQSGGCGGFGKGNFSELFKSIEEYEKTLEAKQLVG
The experiment can be described thus: biochemical. As to conditions: V269A mutant (SEQ ID No. 40); 2 mM HPP, 3 minutes incubation.
Excerpt: as §1

In experiment [3] the target is T3, Arabidopsis HPPD single point mutant SEQ ID No. 44 (Arabidopsis thaliana, UniProt P93836, L368M).
T3 construct: made in house; host or cells: E. coli BL21 (DE3)
T3 sequence (P93836 other isoform, or with tags, fused parts or gaps L368M): as the sequence (P93836 other isoform, or with tags, fused parts or gaps V269A) above, with A274V, L373M counted along it
The experiment in a line: biochemical. As to conditions: L368M mutant (SEQ ID No. 44); 2 mM HPP, 3 minutes incubation.
Excerpt: as §1

The target in experiment [4] is T4, Arabidopsis HPPD single point mutant SEQ ID No. 46 (Arabidopsis thaliana, UniProt P93836, K421I).
T4 construct: made in house; host or cells: E. coli BL21 (DE3)
T4 sequence (P93836 other isoform, or with tags, fused parts or gaps K421I): as the sequence (P93836 other isoform, or with tags, fused parts or gaps V269A) above, with A274V, K426I counted along it
The experiment can be described thus: biochemical. To be noted: K421I mutant (SEQ ID No. 46); 2 mM HPP, 3 minutes incubation.
Excerpt: as §1

The target in experiment [5] is T5, Arabidopsis HPPD single point mutant SEQ ID No. 35 (Arabidopsis thaliana, UniProt P93836, E252S).
T5 construct: made in house; host or cells: E. coli BL21 (DE3)
T5 sequence (P93836 whole entry E252S): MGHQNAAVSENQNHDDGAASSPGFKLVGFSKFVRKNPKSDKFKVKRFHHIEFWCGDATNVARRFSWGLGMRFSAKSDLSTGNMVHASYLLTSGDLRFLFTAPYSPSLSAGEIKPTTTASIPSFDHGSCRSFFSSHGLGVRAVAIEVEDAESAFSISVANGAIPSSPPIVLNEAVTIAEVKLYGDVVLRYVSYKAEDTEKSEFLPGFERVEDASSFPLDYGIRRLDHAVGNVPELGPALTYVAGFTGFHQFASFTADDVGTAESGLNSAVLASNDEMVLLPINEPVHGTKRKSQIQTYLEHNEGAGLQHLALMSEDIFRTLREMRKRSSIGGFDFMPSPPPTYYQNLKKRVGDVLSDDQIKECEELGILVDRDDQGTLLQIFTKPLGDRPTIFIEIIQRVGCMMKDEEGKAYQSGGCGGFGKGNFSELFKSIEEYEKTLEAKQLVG
The experiment in a line: biochemical. As to conditions: E252S mutant; 2 mM HPP, 3 minutes incubation.
Excerpt: as §1

In experiment [6] the target is T6, Arabidopsis HPPD single point mutant SEQ ID No. 50 (Arabidopsis thaliana, UniProt P93836, K421V).
T6 construct: made in house; host or cells: E. coli BL21 (DE3)
T6 sequence (P93836 other isoform, or with tags, fused parts or gaps K421V): as the sequence (P93836 other isoform, or with tags, fused parts or gaps V269A) above, with A274V, K426V counted along it
The experiment in a line: biochemical. As to conditions: K421V mutant (SEQ ID No. 50); 2 mM HPP, 3 minutes incubation.
Excerpt: as §1

The target of experiment [7] is T7, Arabidopsis HPPD single point mutant SEQ ID No. 42 (Arabidopsis thaliana, UniProt P93836, P280A).
T7 construct: made in house; host or cells: E. coli BL21 (DE3)
T7 sequence (P93836 other isoform, or with tags, fused parts or gaps P280A): as the sequence (P93836 other isoform, or with tags, fused parts or gaps V269A) above, with A274V, P285A counted along it
The experiment can be described thus: biochemical. To be noted: P280A mutant (SEQ ID No. 42); 2 mM HPP, 3 minutes incubation.
Excerpt: as §1

Experiment [8] deals with T8, Arabidopsis thaliana wild type HPPD “SEQ ID No. 32” (Arabidopsis thaliana, UniProt P93836).
T8 construct: made in house; host or cells: E. coli BL21 (DE3)
T8 sequence (P93836 with tags, fused parts or gaps): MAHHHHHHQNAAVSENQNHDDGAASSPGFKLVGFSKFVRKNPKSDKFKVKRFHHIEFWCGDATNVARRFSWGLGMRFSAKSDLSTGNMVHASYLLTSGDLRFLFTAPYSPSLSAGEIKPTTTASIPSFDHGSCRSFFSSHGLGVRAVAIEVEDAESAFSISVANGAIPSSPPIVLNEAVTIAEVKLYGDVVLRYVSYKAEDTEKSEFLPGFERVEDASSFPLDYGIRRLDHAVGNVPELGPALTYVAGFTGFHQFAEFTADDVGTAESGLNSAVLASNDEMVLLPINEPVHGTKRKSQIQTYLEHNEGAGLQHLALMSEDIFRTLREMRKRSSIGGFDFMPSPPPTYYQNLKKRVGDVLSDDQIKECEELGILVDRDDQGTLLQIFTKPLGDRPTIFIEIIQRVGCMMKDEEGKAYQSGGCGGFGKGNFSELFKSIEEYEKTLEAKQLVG
The experiment in a line: pI50 determination from dose-response plots of HPPD activity (standard spectrophotometric assay of WO 2009/144079). The experiment is classed as biochemical.
Excerpt: as §1

Setting [9] is: SEQ ID No. 32 (wild type), 2 mM HPP, 3 minutes incubation.

For 2 molecules, pI50 results are on record in patent US20250223607A1, “HPPD Variants and Methods of Use” (BASF Agricultural Solutions Seed US LLC, priority 2013, published 2025).

T1 sequence (P93836 other isoform, or with tags, fused parts or gaps K421Q): as the sequence (P93836 other isoform, or with tags, fused parts or gaps V269A) above, with A274V, K426Q counted along it

As to `Cc1nn(C)c(O)c1C(=O)c1ccc(C(F)(F)F)cc1S(C)(=O)=O` [Pyrasulfotole], the pI50 came out at 4.8 in experiment [1]; 4.4 in experiment [2]; 5.0 in experiment [3]; 4.3 in experiment [4]; 4.3 in experiment [5]; 4.4 in experiment [6]. Moreover, the pI50 in experiment [7] was 4.4; in experiment [8] (2 mM fixed HPP concentration, 3 minutes fixed incubation time, inhibitor 2.5 × 10^−6 to 2.5 × 10^−4 M), 5.4; in experiment [8] (setting [9]), 5.4.

For `Cc1ccc(S(=O)(=O)Oc2c(C(=O)c3ccc(Cl)cc3Cl)c(C)nn2C)cc1` [Pyrazolat], the pI50 in experiment [1] worked out at 5.0; in experiment [2] it was 4.4; in experiment [3], 4.9; in experiment [4], 4.5; in experiment [5] it was 4.7; in experiment [6] it was 4.5. In addition, the pI50 in experiment [7] worked out at 4.7; in experiment [8] (setting [9]), 5.4.
